Consider 2 molecules from patent US7754868B2, “Nucleic acid encoding two-component sensing and regulatory proteins, antimicrobial proteins and uses therefor” (North Carolina State University, priority 2004, dated 2010).

Entries after “also recorded” stand apart in the source; their conditions may differ.

The test system of assay [1] is L. acidophilus control NCK1398 (NCFM::lacL). As to conditions: 20% ethanol, after 90 min, log-phase cells. As to the method:
(§1) Log phase cells at an A600 of 0.25-0.3 (pH>5.8) from a 2% inoculum in MRS broth were centrifuged and resuspended in the same volume of NMS, or MRS containing 15 or 20% (v/v) ethanol. CFU/ml were determined at 30 minutes intervals by serial dilutions in 10% MRS and enumeration on MRS agar as described above.

The test system of assay [2] is L. acidophilus HPK mutant (NCK1686). The settings on record: log-phase cells. As to the method:
as §1

For assay [3], the system named is L. acidophilus NCFM LBA1430 HPK mutant. Put plainly: Growth curves with 0.3% of individual bile salts. In kind it is cell-based, Lactobacillus acidophilus. As to conditions: 0.3% bile salt. As for the experimental part: Growth curve experiments were also performed using 0.3% of individual bile salts: taurocholic acid, taurodeoxycholic acid, taurochenodeoxycholic acid, glycocholic acid, glycodeoxycholic acid.

As to `CCO` [ethanol], the reduction in survival in assay [1] came to 1 log; in assay [2] (20% ethanol, after 90 min), 4 log. Also, the “survival, HPK mutant versus control” value in assay [2] (15% (v/v) ethanol) is reported as “No differences were observed”.

Take `C[C@H](CCC(=O)NCCS(=O)(=O)O)[C@H]1CC[C@H]2[C@@H]3CC[C@@H]4C[C@H](O)CC[C@]4(C)[C@H]3C[C@H](O)[C@]12C` [Sodium taurodeoxycholate]: the “effect on growth of the HPK mutant compared to wild type” value in assay [3] was “the only salt that affected the growth of the HPK mutant; also recorded: more inhibitory effect on the growth of the HPK mutant than other salts tested”.
